Columns and labels:
[1] = system: human coronary artery smooth muscle cells; test: Anti-proliferative activity in synchronized cultured human coronary artery smooth muscle cells stimulated with two percent fetal bovine serum; format: cell-based
Source text: The multiple curves represent various concentrations of topotecan ranging from zero to three hundred nanomolar concentrations.
The multiple curves represent various concentrations of etoposide ranging from zero to eight hundred nanomolar concentrations.
The multiple curves represent various concentrations of Panzem® ranging from zero to 100 micromolar concentrations.

[2] = system: human coronary artery smooth muscle cell; conditions: concentrations up to 30,000.00 nanomolar, FIG. 69
Source text: In vitro cytotoxicity tests or assays may be utilized to determine if drugs, agents and/or compounds are potentially toxic and the level of toxicity. Essentially, in vitro cytotoxicity assays determine acute necrotic effects by a drug causing direct cellular damage. The idea behind these assays is that toxic chemicals affect basic functions of cells which are common to all cells. […] There are a number of different assays that may be utilized. In the present invention, the cytotoxicity assay utilized is based upon the measurement of cellular metabolic activity. A reduction in metabolic activity is an indication of cellular damage. Tests that can measure metabolic function measure cellular ATP levels or mitochondrial activity via MTS metabolism. FIG. 69 is a graphical representation of the results of an MTS assay of Panzem®.

[3] = In vivo release kinetics from stent coatings in porcine pharmacokinetics studies; conditions: after eight (8) days of implantation; single layer sirolimus/cilostazol EVA/BMA coating with 100 μg BMA overcoat (FIG. 86), FIG. 84
Source text: The topcoat is two hundred micro grams.
The basecoat is applied to Bx Velocity® stents and implanted into Yorkshire pigs.
Another critical parameter for the performance of the thrombus resistance of a device coated with cilostazol is the duration of the drug release from the coating. This is of particular significance in the two weeks after device implantation. […] The purpose of the porcine PK study is to assess the local pharmacokinetics of a drug eluting stent at a given implantation time. Normally three stents are implanted in three different coronary arteries in a pig for a given time point and then retrieved for total drug recovery analysis. The stents are retrieved at predetermined time points; namely, 1, 3 and 8 days. The stents are extracted and the total amount of drug remaining on the stents is determined by analysis utilizing HPLC (high performance liquid chromatography) for total drug amount. The difference between the original amount of drug on the stent and the amount of drug retrieved at a given time represents the amount of drug released in that period. The continuous release of drug into surrounding arterial tissue is what prevents the neointimal growth and restenosis in the coronary artery. A normal plot represents the percentage of total drug released (%, y-axis) vs. time of implantation (day, x-axis). […] In this exemplary configuration, the stent 8600 is coated with two layers. The first layer 8602 comprises a combination of sirolimus, cilostazol and a copolymer matrix of EVA/BMA. The second layer or diffusion overcoat 8604 comprises only BMA. More specifically, in this embodiment, the first layer 8602 comprises a combination of sirolimus and cilastazol that is forty-five (45) percent by weight of the total weight of the first layer 8602 and an EVA/BMA copolymer matrix that is fifty-five (55) percent by weight of the total weight of the first layer 8602. The diffusion overcoat comprises one hundred (100 μg) micrograms of BMA.
Pigs are an established animal species for intravascular stent studies and accepted for such studies by the appropriate regulatory agencies. This in vivo study utilized male pigs of the species Sus Scrofa and strain Yoorkshire pigs. S.M.A.R.T.™ stents, available from Cordis Corporation, were placed into the iliac and femoral arteries, PALMAZ® GENESIS™ stents, available from Cordis Corporation, were placed in the renal arteries and CYPHER™ stents, available from Cordis Corporation, were placed in the coronary arteries.

[4] = system: platelet deposition and thrombus formation on the stent surface; test: In vitro bovine blood loop model (In 111 labeled platelets); conditions: FIG. 83
Source text: The anti-thrombotic efficacy of the above-described three configurations is illustrated in FIG. 83. FIG. 83 illustrates the anti-thrombotic properties of the sirolimus/cilostazol combination coatings described above in an in vitro bovine blood loop model. In the in vitro bovine blood loop model, fresh bovine blood is heparinized to adjust for acute clotting time (ACT) of about two hundred (200) seconds. The platelet content in the blood is labeled through the use of Indium 111. In the study, a stent is deployed in a silicone tube, which is part of a closed loop system for blood circulation. The heparinzed blood is circulated through the closed loop system by means of a circulating pump. Blood clots and thrombus builds up on a stent surface over time and reduces the flow rate of blood through the stented loop. […] The control drug eluting stent is the Cypher® sirolimus eluting coronary stent available from Cordis Corporation. Bar 8304 is a stent coated with heparin and is available from Cordis Corporation under the […]® on the Bx Velocity® coronary stent trademark. Bar 8306 is a stent configured as set forth with respect to the architecture illustrated in FIG. 76. Bar 8308 is a stent configured as set forth with respect to the architecture illustrated in FIG. 80. Bar 8310 is a stent configured as set forth with respect to the architecture illustrated in FIG. 82.

SMILES	anti-proliferative activity ([1]; FIG. 66)	effect of addition on the anti-proliferative rapamycin dose response curve ([1]; topotecan to 300 nanomolar (FIG. 64), etoposide to eight hundred nanomolar (FIG. 65), Panzem to 100 micromolar (FIG. 68))	cytotoxicity, MTS assay (cell survival) [2]	drug remaining in the drug coating [3]	thrombus formation [4]
COc1cc2c(cc1O)CC[C@@H]1[C@@H]2CC[C@]2(C)[C@@H](O)CC[C@@H]12 [Panzem®, 2-methoxyestradiol]	extremely effective inhibitor of human coronary artery smooth muscle cell proliferation in vitro	increases the percent of inhibition of rapamycin alone	do not reduce human coronary artery smooth muscle cell survival	–	–
O=C1CCc2cc(OCCCCc3nnnn3C3CCCCC3)ccc2N1 [cilostazol, 6[4-(1-cyclohexyl-1H-tetrazol-5-yl)-butoxy]-3,4-dihydro-2-(1H)-quinolinone]	–	–	–	~80%	significantly reduces thrombus formation

Reference: patent US20070173787A1, “Thin-film nitinol based drug eluting stent” (priority 2005, published 2007)
